Laboratory results: BindingDB's records for doi:10.1016/j.bmcl.2003.11.079 (Millennium Pharmaceuticals, 2004)

Target: Trypsin
Assay: Inhibitory concentration against trypsin was determined

NS(=O)(=O)c1ccccc1-c1ccc(C(=O)Nc2ccccc2C(=O)Nc2ccc(Br)cn2)cc1 [2'-Sulfamoyl-biphenyl-4-carboxylic acid [2-(5-bromo-pyridin-2-ylcarbamoyl)-phenyl]-amide]
IC50: > 10 µM
